Key:
MDA-MB-231 cells = assay: Inhibition of proliferation of MDA-MB-231 cells (CCK-8); format: cell-based, human; details: for IC50: Homo sapiens, 144 h, 6 days, CCK-8
Description: (§1) • MDA-MB-231 cell line (Cell Bank of Chinese Academy of Sciences, TCHu104) • FBS (Gibco, Cat. No. 10099-141) • 0.01M PBS (Biosharp, Cat. No. 162262) • RIPM1640 (Hyclone, Cat. No. 308090.01) • Penicillin-Streptomycin (Hyclone, Cat. No. SV30010) • Cell counting kit-8 (Signalway Antibody, Cat. No. CP002) • DMSO (Sigma, Cat. No. D5879) • Centrifuge Tube, 15 ml (Excell Bio, Cat. No. CS015-0001) • Cell Culture Dish, (Excell Bio, Cat. No. CS016-0128) • 96-well cell culture cluster (Corning, Cat. No. 3599) 3. Experimental Method
1) MDA-MB-231 cells were subcultured in cell culture media, and the cells in good growth condition were seeded in a 96-well plate, 80 μL for each well, thus the number of cells per well was 1500, then the plate was cultured overnight in a 37° C., 5% CO2 cell incubator.
(§2) 2) The drug was prepared with dimethyl sulfoxide (DMSO) as a 10 mM stock solution. Prior to use, the solution was diluted 3 times with DMSO, and then diluted with a 3-fold gradient to obtain 9 concentration gradients. Then, each concentration of the compound was further diluted 200 times with the culture media (to ensure that DMSO concentration in the culture system was 0.1%), 2 repeat wells for each concentration. The diluted solution of each compound (20 μL) was added to the cell culture well (with a final concentration of 10 μM, 3.3 μM, 1.1 μM . . . ), and shaken gently for mixing. In addition, three negative control wells containing only cells and three blank control wells containing only culture medium (20 μL DMSO diluted 200 times with culture medium being added to six wells) were included.
(§3) (1) After culturing for 6 days, 10 μL CCK-8 was added to each well and cultured for additional 2.5 h in a 37° C., 5% CO2 cell incubator.
(§4) (2) The absorbance (OD value) at 450 nm was measured with a multifunctional microplate reader.
(§5) (3) The data was analyzed by the Dose-response-inhibition equation in the software GraphPad Prism6, and the IC50 value was obtained.

BRD4(1,2) = BRD4(1,2) (Homo sapiens (Human), UniProt O60885); assay: HTRF binding of compounds on BRD4 (D1+D2); details: read-out: IC50 against BRD4(1,2)
From the text: Homogeneous time-resolved fluorescence technology (HTRF) was used to determine the binding effect of compounds on BRD4 (D1+D2) and BRDT (D1) proteins, as well as AlphaScreen method was used to detect the binding effect of compounds on BRD2 (D1+D2) and BRD3 (D1+D2) proteins.
The compounds were screened in vitro, and each compound was serially diluted to 10 concentrations. Four proteins BRD4 (D1+D2), BRDT (D1), BRD2 (D1+D2) and BRD3 (D1+D2) were chosen to determine the IC50 values of compounds (see Table 1).
4. Compound treatment: The test compound was dissolved in dimethyl sulfoxide (DMSO), and the storage concentration was 10 mM.
5. Steps for Homogeneous Time-Resolved Fluorescence Detection:
1) According to the arrangement of the detection plate, all compounds were diluted in Echo plate.
The final dilution concentration of DMSO is 0.1%.
2) The compound or DMSO was transferred to a 384-well detection plate with the Echo automatic sampler.
3) Two-fold concentration of the mixture of protein and peptide was added to the detection plate.
4) Two-fold concentration of mixed detection solution was added to the test plate, and shaken for 30 s.
5) Incubating for 2 h at room temperature.
6) Fluorescence signal was read on Envision multi-function microplate reader (excitation light wavelength being 340 nm, and emission light wavelength being 615 nm and 665 nm).
The experimental data were recorded in an Excel file, and equation (1) was used to obtain the inhibition rate. Inh%=(Max−Signal)/(Max−Min)*100 Equation (1):
The obtained data was recorded in GraphPad software, and equation (2) was used to provide the IC50 values. Y=Bottom+(Top−Bottom)/(1+10^((Log IC50−X)*Hill Slope)) Equation (2): […]
Y axis was the inhibition rate, and X axis was the compound concentration.

MDA-MB-453 cells = assay: Inhibition of proliferation of MDA-MB-453 cells (CCK-8); format: cell-based, human; details: for IC50: Homo sapiens, 144 h, 6 days, CCK-8
Description: as §1, with “MDA-MB-453” for “MDA-MB-231”, “TCHu35)” for “TCHu104)”
1) MDA-MB-453 cells were subcultured in cell culture media, and the cells in good growth condition were seeded in a 96-well plate, 80 μL for each well, thus the number of cells per well was 1500, then the plate was cultured overnight in a 37° C., 5% CO2 cell incubator.
as §2, §3, §4, §5

IC50 (MDA-MB-231 cells) [nM]	IC50 (BRD4(1,2)) [nM]	IC50 (MDA-MB-453 cells) [nM]	Compound	inhibitory action on MDA-MB-453 cells (in words) (MDA-MB-453 cells)	inhibitory action on MDA-MB-231 cells (in words) (MDA-MB-231 cells)
7540	14	89	[2H]C([2H])([2H])n1cc(-c2cc(NS(=O)(=O)CC)ccc2N2CCC3(CC2)CC3)c2cc[nH]c2c1=O [Compound 41]	–	–
749	–	48	[2H]C([2H])([2H])n1cc(-c2cc(S(=O)(=O)CC)ccc2N2CCC3(CC3)C2)c2cc[nH]c2c1=O [Compound 55, 4-(5(ethylsulfonyl)-2-(5-aza-spiro[2.4]heptan-5-yl)phenyl)-6-trideuteromethyl-1H-pyrrolo[2,3-c]pyridin-7(6H)-one]	effective inhibitory action	–
26	6.9	440	[2H]C([2H])([2H])n1cc(-c2cc(S(C)(=O)=O)ccc2N2CCC3(CC2)CC3(F)F)c2cc[nH]c2c1=O [Compound 184, 4-(2-(1,1-difluoro-6-aza-spiro[2.5]octan-6-yl)-5-(methylsulfonyl)phenyl)-6-trideuteromethyl-1H-pyrrolo[2,3-c]pyridin-7(6H)-one]	–	effective inhibitory action
–	12	–	[2H]C([2H])([2H])n1cc(-c2cc(S(C)(=O)=O)c(F)cc2N2CCC3(CC2)CC3(F)F)c2cc[nH]c2c1=O [Compound 219, 4-(2-(1,1-difluoro-6-aza-spiro[2.5]octan-6-yl)-4-fluoro-5-(methylsulfonyl)phenyl)-6-trideuteromethyl-1H-pyrrolo[2,3-c]pyridin-7(6H)-one]	–	–

Reference: patent publication US12162878B2 (HINOVA PHARMACEUTICALS INC., priority 2018, dated 2024)
